Experimental data: patent publication US7767812B2, “Crystals of pyrimidine compound and process for producing the same” (Eisai R&D Management Co., Ltd., priority 2005, dated 2010)

Experiment: Solubility in Disintegration Test 2nd fluid (Test Example 1)
Conditions: approx. 50 mg in 500 mL Disintegration Test 2nd fluid (Japanese pharmacopoeia, 14th Edition), paddles 50 rpm, concentration by HPLC over time (FIG. 17); compared with crystal form B
Description: First, 500 mL of the 2nd fluid was stirred at 50 rpm with paddles (Toyama Co., Ltd.; DISSOLUTION TESTER), then after the crystals and amorphous compound were added, the solution was sampled at each time period. The sampled solutions were filtered through a filter (0.2 μm), and the concentration of 5-[2-amino-4-(2-furyl)pyrimidin-5-yl]-1-methylpyridin-2(1H)-one in the solution was measured by HPLC method. The conditions for HPLC method are shown below.
Column: CAPCELL PAK C18 AQ, S-5 μm, 4.6 mm ID×250 mm length (Shiseido, Japan)
Column temperature: a constant temperature around 30° C.
Detection wavelength: 262 nm
Solution A: acetonitrile/water/1M ammonium acetate (10:1000:1, v/v/v)
Solution B: acetonitrile/water/1M ammonium acetate (900:100:1, v/v/v)

Compound	solubility
Cn1cc(-c2cnc(N)nc2-c2ccco2)ccc1=O [crystal form C, 5-[2-amino-4-(2-furyl)pyrimidin-5-yl]-1-methylpyridin-2(1H)-one]	superior in solubility than the crystal form B
Cn1cc(-c2cnc(N)nc2-c2ccco2)ccc1=O.O [hydrate crystals, 5-[2-amino-4-(2-furyl)pyrimidin-5-yl]-1-methylpyridin-2(1H)-one hydrate]	superior in solubility than the crystal form B
